Measured values from ChEMBL document CHEMBL5352486, “Design, synthesis, in vitro - In vivo biological evaluation of novel thiazolopyrimidine compounds as antileishmanial agent with PTR1 inhibition” (Eur J Med Chem, 2023).
Converted amounts (≈) assume the structure as drawn.

Legend:
Leishmania tropica [1] = assay: Antileishmanial activity against Leishmania tropica MHOM/A7/1974/SAF-K27 incubated for 48 hrs by Neubauer hemocytometer analysis; format: functional, organism-based; conditions: MHOM/A7/1974/SAF-K27, 48 h
Leishmania tropica [2] = assay: Antileishmanial activity against Leishmania tropica MHOM/A7/1974/SAF-K27 incubated for 48 hrs by XTT method; format: functional, organism-based; conditions: MHOM/A7/1974/SAF-K27, 48 h
Leishmania infantum [3] = assay: Antileishmanial activity against Leishmania infantum MHOM/TN/1980/IPT1 incubated for 48 hrs by XTT method; format: functional, organism-based; conditions: MHOM/TN/1980/IPT1, 48 h
Leishmania infantum [4] = assay: Antileishmanial activity against Leishmania infantum MHOM/TN/1980/IPT1 incubated for 48 hrs by Neubauer hemocytometer analysis; format: functional, organism-based; conditions: MHOM/TN/1980/IPT1, 48 h
[5] = (§1) Cytotoxicity against mouse RAW264.7 cells by alamar blue method; format: toxicity, cell-based; conditions: mouse, RAW264.7 cells
RAW264.7 = assay: as §1; format: toxicity, cell-based; conditions: raw264.7
[6] = (§2) Cytotoxicity against mouse L929 cells by alamar blue method; format: toxicity, cell-based; conditions: mouse, L929 cells
L929 = assay: as §2; format: toxicity, cell-based; conditions: l929
Pteridine reductase 1 = biological target: T1, Pteridine reductase 1 (Leishmania major, UniProt Q01782); assay: Inhibition of recombinant Leishmania major PTR1 expressed in Escherichia coli BL21 using folic acid as substrate in presence of NADPH
T1 sequence (Q01782 whole entry): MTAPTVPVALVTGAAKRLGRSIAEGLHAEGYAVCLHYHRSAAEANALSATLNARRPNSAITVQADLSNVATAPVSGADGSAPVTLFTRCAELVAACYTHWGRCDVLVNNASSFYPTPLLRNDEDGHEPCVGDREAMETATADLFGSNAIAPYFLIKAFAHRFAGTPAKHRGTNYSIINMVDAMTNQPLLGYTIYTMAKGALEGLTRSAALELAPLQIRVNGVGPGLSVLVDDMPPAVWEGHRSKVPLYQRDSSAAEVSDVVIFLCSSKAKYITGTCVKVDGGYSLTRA

[7] = test system: DHFR (human) versus PTR1 (Leishmania major); assay: Selectivity index, ratio of IC50 for human DHFR to IC50 for Leishmania major PTR1; format: toxicity; conditions: human DHFR enzyme and Leishmania major PTR1 enzyme, read-out: Ratio IC50

SMILES | IC50 (Leishmania tropica [1]) | IC50 (Leishmania tropica [2]) | IC50 (Leishmania infantum [3]) | IC50 (Leishmania infantum [4]) | IC50 [5] | log10 IC50 (µg/mL) (RAW264.7) | IC50 [6] | log10 IC50 (µg/mL) (L929) | IC50 (Pteridine reductase 1) | selectivity ratio [7]
CN1CCN(c2ncc3nc(NC(=O)c4ccc(Cl)c([N+](=O)[O-])c4)sc3n2)CC1 | 51.5 µg/mL (≈ 119 µM) | 53.8 µg/mL (≈ 124 µM) | 60.4 µg/mL (≈ 139 µM) | 58.8 µg/mL (≈ 135 µM) | – | – | – | – | – | –
O=C(Nc1nc2cnc(N3CCCC3)nc2s1)c1ccc(Cl)cc1 | 137 µg/mL (≈ 380 µM) | 141 µg/mL (≈ 392 µM) | 117 µg/mL (≈ 326 µM) | 114 µg/mL (≈ 315 µM) | – | – | – | – | – | –
CN(C)c1ncc2nc(NC(=O)c3ccc(Cl)cc3Cl)sc2n1 | 86.6 µg/mL (≈ 235 µM) | 86.2 µg/mL (≈ 234 µM) | 81.1 µg/mL (≈ 220 µM) | 84.1 µg/mL (≈ 228 µM) | – | – | – | – | – | –
CN(C)c1ncc2nc(NC(=O)c3ccc(Cl)cc3)sc2n1 | > 300 µg/mL | > 300 µg/mL | > 300 µg/mL | > 300 µg/mL | – | – | – | – | – | –
O=C(Nc1nc2cnc(N3CCCCC3)nc2s1)c1ccc(Cl)cc1Cl | 16.3 µg/mL (≈ 39.9 µM) | 16.3 µg/mL (≈ 39.8 µM) | 16.8 µg/mL (≈ 41.1 µM) | 16.8 µg/mL (≈ 41.1 µM) | – | – | – | – | – | –
O=C(Nc1nc2cnc(Cl)nc2s1)c1ccc(Cl)c(Cl)c1 | 14.8 µg/mL (≈ 41.1 µM) | 15.1 µg/mL (≈ 41.9 µM) | 14.4 µg/mL (≈ 40 µM) | 14.1 µg/mL (≈ 39.3 µM) | – | – | – | – | – | –
CCN(CC)c1ncc2nc(NC(=O)c3ccc(Cl)c([N+](=O)[O-])c3)sc2n1 | 15.8 µg/mL (≈ 38.7 µM) | 15.6 µg/mL (≈ 38.2 µM) | 15.3 µg/mL (≈ 37.6 µM) | 15.1 µg/mL (≈ 37.2 µM) | 4.47 µg/mL (≈ 11 µM) | 0.65 | 19.1 µg/mL (≈ 46.8 µM) | 1.28 | 254 µM | 12.6
CCOC(=O)N1CCN(c2ncc3nc(NC(=O)c4ccc(Cl)cc4)sc3n2)CC1 | 53.9 µg/mL (≈ 121 µM) | 54.1 µg/mL (≈ 121 µM) | 53.5 µg/mL (≈ 120 µM) | 52.4 µg/mL (≈ 117 µM) | – | – | – | – | – | –
O=C(Nc1nc2cnc(N3CCCC3)nc2s1)c1ccc(Cl)c(Cl)c1 | > 300 µg/mL | > 300 µg/mL | > 300 µg/mL | > 300 µg/mL | – | – | – | – | – | –
O=C(Nc1nc2cnc(N3CCCCC3)nc2s1)c1ccc(Cl)cc1 | 116 µg/mL (≈ 310 µM) | 122 µg/mL (≈ 327 µM) | 121 µg/mL (≈ 324 µM) | 119 µg/mL (≈ 317 µM) | – | – | – | – | – | –
CN(C)c1ncc2nc(NC(=O)c3ccc(Cl)c(Cl)c3)sc2n1 | 116 µg/mL (≈ 315 µM) | 119 µg/mL (≈ 322 µM) | 114 µg/mL (≈ 310 µM) | 112 µg/mL (≈ 304 µM) | – | – | – | – | – | –
O=C(Nc1nc2cnc(Cl)nc2s1)c1ccc(Cl)c([N+](=O)[O-])c1 | 30.6 µg/mL (≈ 82.7 µM) | 30.7 µg/mL (≈ 82.9 µM) | 30.6 µg/mL (≈ 82.6 µM) | 30.5 µg/mL (≈ 82.4 µM) | – | – | – | – | – | –
CC(=O)N1CCN(c2ncc3nc(NC(=O)c4ccc(Cl)cc4)sc3n2)CC1 | > 300 µg/mL | > 300 µg/mL | > 300 µg/mL | > 300 µg/mL | – | – | – | – | – | –
CC(=O)N1CCN(c2ncc3nc(NC(=O)c4ccc(Cl)cc4Cl)sc3n2)CC1 | 75 µg/mL (≈ 166 µM) | 75.8 µg/mL (≈ 168 µM) | 78.6 µg/mL (≈ 174 µM) | 77.7 µg/mL (≈ 172 µM) | – | – | – | – | – | –
CCN(CC)c1ncc2nc(NC(=O)c3ccc(Cl)cc3)sc2n1 | 186 µg/mL (≈ 515 µM) | 188 µg/mL (≈ 520 µM) | 189 µg/mL (≈ 523 µM) | 191 µg/mL (≈ 528 µM) | – | – | – | – | – | –
CC(=O)N1CCN(c2ncc3nc(NC(=O)c4ccc(Cl)c([N+](=O)[O-])c4)sc3n2)CC1 | 34.4 µg/mL (≈ 74.4 µM) | 35.3 µg/mL (≈ 76.3 µM) | 36.1 µg/mL (≈ 78.1 µM) | 35.5 µg/mL (≈ 76.8 µM) | – | – | – | – | – | –
O=C(Nc1nc2cnc(N3CCCCC3)nc2s1)c1ccc(Cl)c([N+](=O)[O-])c1 | 56.8 µg/mL (≈ 136 µM) | 56.7 µg/mL (≈ 135 µM) | 63.5 µg/mL (≈ 152 µM) | 64 µg/mL (≈ 153 µM) | – | – | – | – | – | –
O=C(Nc1nc2cnc(N3CCCC3)nc2s1)c1ccc(Cl)cc1Cl | 51.2 µg/mL (≈ 130 µM) | 52 µg/mL (≈ 132 µM) | 52.6 µg/mL (≈ 133 µM) | 52.4 µg/mL (≈ 133 µM) | – | – | – | – | – | –
O=C(Nc1nc2cnc(N3CCCCC3)nc2s1)c1ccc(Cl)c(Cl)c1 | 25.1 µg/mL (≈ 61.6 µM) | 25.5 µg/mL (≈ 62.4 µM) | 25.8 µg/mL (≈ 63.2 µM) | 25.7 µg/mL (≈ 63 µM) | – | – | – | – | – | –
CCOC(=O)N1CCN(c2ncc3nc(NC(=O)c4ccc(Cl)cc4Cl)sc3n2)CC1 | > 300 µg/mL | > 300 µg/mL | > 300 µg/mL | > 300 µg/mL | – | – | – | – | – | –
O=C(Nc1nc2cnc(N3CCOCC3)nc2s1)c1ccc(Cl)c(Cl)c1 | 40.3 µg/mL (≈ 98.2 µM) | 41.4 µg/mL (≈ 101 µM) | 44.6 µg/mL (≈ 109 µM) | 44.1 µg/mL (≈ 108 µM) | – | – | – | – | – | –
CC(=O)N1CCN(c2ncc3nc(NC(=O)c4ccc(Cl)c(Cl)c4)sc3n2)CC1 | 147 µg/mL (≈ 326 µM) | 149 µg/mL (≈ 331 µM) | 127 µg/mL (≈ 282 µM) | 126 µg/mL (≈ 279 µM) | – | – | – | – | – | –
O=C(Nc1nc2cnc(N3CCOCC3)nc2s1)c1ccc(Cl)cc1 | > 300 µg/mL | > 300 µg/mL | > 300 µg/mL | > 300 µg/mL | – | – | – | – | – | –
CCN(CC)c1ncc2nc(NC(=O)c3ccc(Cl)cc3Cl)sc2n1 | 120 µg/mL (≈ 303 µM) | 125 µg/mL (≈ 315 µM) | 124 µg/mL (≈ 312 µM) | 123 µg/mL (≈ 310 µM) | – | – | – | – | – | –
O=C(Nc1nc2cnc(N3CCOCC3)nc2s1)c1ccc(Cl)cc1Cl | 90.3 µg/mL (≈ 220 µM) | 90.6 µg/mL (≈ 221 µM) | 90.9 µg/mL (≈ 222 µM) | 91.1 µg/mL (≈ 222 µM) | – | – | – | – | – | –
